Test results: US10828317B2, “Method of treating bacterial infections” (priority 2016, dated 2020)
Read-outs that look alike come from different tables or passages of the source.

Columns and labels:
S. aureus V321 = experiment: MIC; format: cell-based; conditions: Staphylococcus aureus, Mupirocin resistant isolate, read-out: MIC (resistance pattern)
S. aureus V86 = experiment: MIC; format: cell-based; conditions: Staphylococcus aureus, V86; Mupirocin resistant isolate; read-out: MIC (resistance pattern)
S. aureus V308 = experiment: MIC; format: cell-based; conditions: Staphylococcus aureus, V308; Mupirocin resistant isolate; read-out: MIC (resistance pattern)
S. aureus V55 = experiment: MIC; format: cell-based; conditions: Staphylococcus aureus, Mupirocin resistant isolate, read-out: MIC (resistance pattern)
P. aeruginosa EN014 = experiment: MIC, WT; format: cell-based, Pseudomonas aeruginosa; conditions: Pseudomonas aeruginosa, EN014, combination didanosine+trimethoprim+uridine, Table 10; read-out: MIC
K. pneumoniae EN0463 = experiment: MIC; format: cell-based, Klebsiella pneumoniae; conditions: Klebsiella pneumoniae, EN0463, combination didanosine+trimethoprim+uridine, Table 10; read-out: MIC
P. aeruginosa EN0459 = experiment: MIC; format: cell-based, Pseudomonas aeruginosa; conditions: Pseudomonas aeruginosa, EN0459, combination didanosine+trimethoprim+uridine, Table 10; read-out: MIC
P. aeruginosa EN004 = experiment: MIC, WT (EN004 = EN0004); format: cell-based, Pseudomonas aeruginosa
K. pneumoniae EN006 = experiment: MIC, WT (EN006 = EN0006, ATCC 13883); format: cell-based, Klebsiella pneumoniae
P. mirabilis ST19 EN0445 = experiment: MIC; format: cell-based, Proteus mirabilis; conditions: Proteus mirabilis, ST19EN0445, combination didanosine+trimethoprim+uridine, Table 10; read-out: MIC
S. typhimurium EN0466 = experiment: MIC; format: cell-based; conditions: Salmonella enterica, combination didanosine+trimethoprim+uridine, Table 10
E. coli EN0235 = experiment: microbe, parasite or virus in culture; format: cell-based; conditions: Escherichia coli, EN0235, combination didanosine+trimethoprim+uridine, Table 20
Citrobacter sp. EN0465 = experiment: MIC; format: cell-based; conditions: Citrobacter, SP.EN0465, combination didanosine+trimethoprim+uridine, Table 10; read-out: MIC
S. epidermidis EN0456 = experiment: MIC; format: cell-based, Staphylococcus epidermidis; conditions: Staphylococcus epidermidis, EN0456, combination didanosine+trimethoprim+uridine, Table 10; read-out: MIC
E. aerogenes EN0461 = experiment: MIC; format: cell-based, Enterobacter aerogenes; conditions: Klebsiella aerogenes, EN0461, combination didanosine+trimethoprim+uridine, Table 10; read-out: MIC
A. baumannii EN007 = experiment: MIC, WT (EN007 = EN0007); format: cell-based, Acinetobacter baumannii
S. aureus EN008 = experiment: MIC, Gram-positive control; format: cell-based, Staphylococcus aureus; conditions: Staphylococcus aureus, EN008, combination didanosine+trimethoprim+uridine, Table 10; read-out: MIC
P. aeruginosa EN0460 = experiment: MIC; format: cell-based, Pseudomonas aeruginosa; conditions: Pseudomonas aeruginosa, EN0460, combination didanosine+trimethoprim+uridine, Table 10; read-out: MIC
E. coli EN001 = experiment: MIC, WT (EN001 = EN0001, ATCC 25922); format: cell-based, Escherichia coli; conditions: combination didanosine+trimethoprim+uridine, Table 20
A. baumannii EN016 = experiment: MIC, WT; format: cell-based, Acinetobacter baumannii; conditions: Acinetobacter baumannii, EN016, combination didanosine+trimethoprim+uridine, Table 10; read-out: MIC
E. coli EN012 = experiment: MIC, WT; format: cell-based, Escherichia coli; conditions: Escherichia coli, EN012, combination didanosine+trimethoprim+uridine, Table 10; read-out: MIC
P. aeruginosa EN0422 = experiment: MIC; format: cell-based, Pseudomonas aeruginosa; conditions: Pseudomonas aeruginosa, EN0422, combination didanosine+trimethoprim+uridine, Table 10; read-out: MIC
[1] = system: A. pittii or A. nosocomialis EN0180; experiment: MIC; format: cell-based, Acinetobacter pittii or nosocomialis; conditions: combination didanosine+trimethoprim+uridine, Table 10; read-out: MIC
K. oxytoca EN0392 = experiment: MIC; format: cell-based; conditions: Klebsiella oxytoca, EN0392, combination didanosine+trimethoprim+uridine, Table 10
E. coli EN0136 = experiment: MIC, ESBL (CTX-M-2); format: cell-based; conditions: Escherichia coli, EN0136, combination didanosine+trimethoprim+uridine, Table 20; read-out: MIC
[2] = combination didanosine+trimethoprim+uridine, Table 20

Structure (SMILES): C/C(=C\C(=O)OCCCCCCCCC(=O)O)C[C@@H]1OC[C@H](C[C@@H]2O[C@H]2[C@@H](C)[C@H](C)O)[C@@H](O)[C@H]1O [Mupirocin]
- MIC (S. aureus V321): > 256 µg/mL
- MIC (S. aureus V86): > 256 µg/mL
- MIC (S. aureus V308): > 256 µg/mL
- MIC (S. aureus V55): > 256 µg/mL

Structure (SMILES): O=c1[nH]cnc2c1ncn2[C@H]1CC[C@@H](CO)O1 [Didanosine, didanosine]
- MIC (P. aeruginosa EN014): > 4 µg/mL
- MIC (K. pneumoniae EN0463): 0.25 µg/mL
- MIC (P. aeruginosa EN0459): > 4 µg/mL
- MIC (P. aeruginosa EN004; Pseudomonas aeruginosa, EN004, combination didanosine+trimethoprim+uridine, Table 10, read-out: MIC): > 4 µg/mL
- MIC (P. aeruginosa EN004; [2]): >4 µg/mL
- MIC (K. pneumoniae EN006; Klebsiella pneumoniae, EN006, combination didanosine+trimethoprim+uridine, Table 10, read-out: MIC): 0.5 µg/mL
- MIC (K. pneumoniae EN006; [2]): 0.5 µg/mL
- MIC (P. mirabilis ST19 EN0445): 1 µg/mL
- MIC (S. typhimurium EN0466): 0.25 µg/mL
- MIC (E. coli EN0235): 0.125 µg/mL
- MIC (Citrobacter sp. EN0465): > 4 µg/mL
- MIC (S. epidermidis EN0456): 0.064 µg/mL
- MIC (E. aerogenes EN0461): 0.5 µg/mL
- MIC (A. baumannii EN007; Acinetobacter baumannii, EN007, combination didanosine+trimethoprim+uridine, Table 10, read-out: MIC): > 4 µg/mL
- MIC (A. baumannii EN007; [2]): >4 µg/mL
- MIC (S. aureus EN008): 0.5 µg/mL
- MIC (P. aeruginosa EN0460): > 4 µg/mL
- MIC (E. coli EN001): 0.25 µg/mL
- MIC (A. baumannii EN016): > 4 µg/mL
- MIC (E. coli EN012): 0.064 µg/mL
- MIC (P. aeruginosa EN0422): > 4 µg/mL
- MIC [1]: > 4 µg/mL
- MIC (K. oxytoca EN0392): 0.25 µg/mL
- MIC (E. coli EN0136): > 4 µg/mL
